Assay results from patent US20080070978A1, “Internal 1,15-Lactones Of Fluprostenol And Related Prostaglandin F2a Analogs And Their Use In The Treatment Of Glaucoma And Intraocular Hypertension” (priority 2000, published 2008).

Tested on: corneal esterase enzymes
Assay: Enzymatic hydrolysis of fluprostenol 1,15-lactone by corneal esterase enzymes (incubation with bovine corneal tissue; TLC and HPLC analysis)
Format: in vitro ADME
Conditions: pH 7.4 phosphate buffered saline, 37° C.
Protocol: Enzymatic hydrolysis of fluprostenol 1,15-lactone by corneal esterase enzymes was documented by suspending 500 μg of fluprostenol 1,15-lactone in 10 ml of pH 7.4 phosphate buffered saline containing approximately 40 mg of freshly collected bovine cornea! tissue. The mixture was incubated at 37° C. and analyzed at 2 hour, 4 hour and 18 hour time intervals by Thin Layer Chromatography (TLC; Analtech silica gel G-60 plates) using 40:60 acetone:dichloromethane containing 0.5% acetic acid. The plates were visualized by spraying with vanillin dissolved in methanol and phosphoric acid; followed by charring on a hot plate. PGF2α methyl ester, which is known to be hydrolyzed by corneal esterases, was subjected to the same procedure as a control.
The results are shown in FIGS. 3A-3D which are images of chromatography plates developed at 2 hours (FIGS. 3A and 3C) and 4 hours (FIGS. 3B and 3D), respectively. […]
The mixture of fluprostenol 1,15-lactone and bovine corneal tissue was also analyzed using HPLC under the conditions specified in FIGS. 4A and 4B which are graphic representations of the HPLC analysis results for a fluprostenol 1,15-lactone standard (FIG. 4A) and a mixture of fluprostenol 1,15-lactone and bovine corneal tissue incubated for 4 hours (FIG. 4B).

- conversion of fluprostenol 1,15-lactone to fluprostenol free acid (HPLC, after 4 hours): more than 50%
- release of the free acid by hydrolysis (TLC, by 4 hours): clearly shown
Compound: O=C1CCC/C=C\CC2C(/C=C/[C@@H](COc3cccc(C(F)(F)F)c3)O1)[C@H](O)C[C@@H]2O (some centres unmarked) [fluprostenol 1,15-lactone]
